In US9179694B2, “Method and composition for enhancing milk production and milk component concentrations” (PURINA ANIMAL NUTRITION LLC, priority 2003, dated 2015):
Marks after values point to notes of the source that are not given here.

Experiment: Total solids content of produced milk in sorbitol feeding trials
Format: in vivo, Holstein cows
Conditions: for Total Solids in Produced Milk: Pre-Partum Trial #1 (75/0/0 g/day in wk −3..−1/+1..+4/+5..+8)
Experimental: To determine the weight percent total solids, wet basis, in a sample, the actual weight of total solids is determined by analyzing the sample in accordance with Method #925.23 (33.2.09) of Official Methods of Analysis, Association of Official Analytical Chemists (AOAC) (16th Ed., 1995). The weight percent total solids, wet basis, is then calculated by dividing the actual weight of total solids by the actual weight of the sample. Each cow of each of the six different trials (Control Trial #1, Control Trial #2, Pre-Partum Trial #1, Pre-Partum Trial #2, Pre/Post Trial #1, and Pre/Post Trial #2) was milked three times daily and the weight of produced milk by each cow was recorded at each milking. The milk from each cow was sampled once per week (⅓ of the sample volume from each of the three milkings occurring on the weekly milk sampling day) and was analyzed for true protein, total fat, lactose, and total solids, as detailed in the property determination and characterization techniques presented above. Additionally, samples of blood were periodically obtained from each cow during the four trials (Control Trial 2, Pre-Partum Trial #2, Pre/Post Trial #1, and Pre/Post Trial #2) encompassed in Example Two and were analyzed for non-esterified fatty acid (NEFA) content as detailed in the property determination and characterization techniques presented above. No NEFA analysis was conducted on the cows employed in Control Trial #1 or Pre-Partum Trial #1 that are the subject of Example One. Example One includes Control Trial #1 and Pre-Partum Trial #1. Both primiparious cows and multiparious cows were included in Control Trial #1 and Pre-Partum Trial #1. Five primiparious cows and fifteen multiparious cows were included in Control Trial #1; likewise, five primiparious cows and fifteen multiparious cows were included in Pre-Partum Trial #1. All cows included in Control Trial #1 and Pre-Partum Trial #1 were Holsteins. Example Two includes Control Trial #2, Pre-Partum Trial #2, Pre/Post Trial #1, and Pre/Post Trial #2. Only multiparious, Holstein cows were included in Control Trial #2, […], Pre/Post Trial #1, and Pre/Post Trial #2. Eighteen multiparious cows were included in both Control Trial #2 and Pre-Partum Trial #2, while sixteen multiparious cows were included in Pre/Post Trial #1 and seventeen multiparious cows were included in Pre/Post Trial #2.

Structure (SMILES): OC[C@@H](O)[C@@H](O)[C@H](O)[C@@H](O)CO [sorbitol]
- Total Solids in Produced Milk (multiparious cows, weeks +1 through +8): 12.0^ab wt %
- Total Solids in Produced Milk (primiparious cows, weeks +1 through +8): 13.0 wt %
- increase in total solids concentration in the produced milk (Pre-Partum Trial #1 (75 g/day wk −3..−1 only) versus Control Trial #1, primiparious cows, weeks +1 through +8): 7.4%
- Total Solids Content of Produced Milk (Pre-Partum Trial #2 (75/0/100 g/day in wk −3..−1/+1..+4/+5..+8), multiparious cows, week +1): 14.4^a weight %
- Total Solids Content of Produced Milk (Pre-Partum Trial #2 (75/0/100 g/day in wk −3..−1/+1..+4/+5..+8), multiparious cows, week +2): 13.25 weight %
- Total Solids Content of Produced Milk (Pre-Partum Trial #2 (75/0/100 g/day in wk −3..−1/+1..+4/+5..+8), multiparious cows, week +3): 12.54 weight %
- Total Solids Content of Produced Milk (Pre-Partum Trial #2 (75/0/100 g/day in wk −3..−1/+1..+4/+5..+8), multiparious cows, week +4): 11.76^a weight %
- Total Solids Content of Produced Milk (Pre-Partum Trial #2 (75/0/100 g/day in wk −3..−1/+1..+4/+5..+8), multiparious cows, week +5): 11.60^a weight %
- Total Solids Content of Produced Milk (Pre-Partum Trial #2 (75/0/100 g/day in wk −3..−1/+1..+4/+5..+8), multiparious cows, week +6): 11.43^a weight %
- Total Solids Content of Produced Milk (Pre-Partum Trial #2 (75/0/100 g/day in wk −3..−1/+1..+4/+5..+8), multiparious cows, week +7): 11.55 weight %
- Total Solids Content of Produced Milk (Pre-Partum Trial #2 (75/0/100 g/day in wk −3..−1/+1..+4/+5..+8), multiparious cows, week +8): 11.45^ab weight %
- Total Solids Content of Produced Milk (Pre-Partum Trial #2 (75/0/100 g/day in wk −3..−1/+1..+4/+5..+8), multiparious cows, weeks +1 through +4): 12.94^a weight %
- Total Solids Content of Produced Milk (Pre-Partum Trial #2 (75/0/100 g/day in wk −3..−1/+1..+4/+5..+8), multiparious cows, weeks +1 through +8): 12.23^a weight %
- Total Solids Content of Produced Milk (Pre-Partum Trial #2 (75/0/100 g/day in wk −3..−1/+1..+4/+5..+8), multiparious cows, weeks +5 through +8): 11.51^a weight %
- Total Solids Content of Produced Milk (Pre/Post Trial #1 (150/125/100 g/day in wk −3..−1/+1..+4/+5..+8), multiparious cows, week +1): 15.3^ab weight %
- Total Solids Content of Produced Milk (Pre/Post Trial #1 (150/125/100 g/day in wk −3..−1/+1..+4/+5..+8), multiparious cows, week +1, two-trial comparison with Control Trial #2 (Table 26)): 15.3 weight %
- Total Solids Content of Produced Milk (Pre/Post Trial #1 (150/125/100 g/day in wk −3..−1/+1..+4/+5..+8), multiparious cows, week +2): 12.28 weight %
- Total Solids Content of Produced Milk (Pre/Post Trial #1 (150/125/100 g/day in wk −3..−1/+1..+4/+5..+8), multiparious cows, week +2, two-trial comparison with Control Trial #2 (Table 26)): 13.28 weight %
- Total Solids Content of Produced Milk (Pre/Post Trial #1 (150/125/100 g/day in wk −3..−1/+1..+4/+5..+8), multiparious cows, week +3): 12.84 weight %
- Total Solids Content of Produced Milk (Pre/Post Trial #1 (150/125/100 g/day in wk −3..−1/+1..+4/+5..+8), multiparious cows, week +3, two-trial comparison with Control Trial #2 (Table 26)): 12.84 weight %
- Total Solids Content of Produced Milk (Pre/Post Trial #1 (150/125/100 g/day in wk −3..−1/+1..+4/+5..+8), multiparious cows, week +4): 12.54^c weight %
- Total Solids Content of Produced Milk (Pre/Post Trial #1 (150/125/100 g/day in wk −3..−1/+1..+4/+5..+8), multiparious cows, week +4, two-trial comparison with Control Trial #2 (Table 26)): 12.54 weight %
- Total Solids Content of Produced Milk (Pre/Post Trial #1 (150/125/100 g/day in wk −3..−1/+1..+4/+5..+8), multiparious cows, week +5): 12.17^ab weight %
- Total Solids Content of Produced Milk (Pre/Post Trial #1 (150/125/100 g/day in wk −3..−1/+1..+4/+5..+8), multiparious cows, week +5, two-trial comparison with Control Trial #2 (Table 26)): 12.17 weight %
- Total Solids Content of Produced Milk (Pre/Post Trial #1 (150/125/100 g/day in wk −3..−1/+1..+4/+5..+8), multiparious cows, week +6): 12.08^b weight %
- Total Solids Content of Produced Milk (Pre/Post Trial #1 (150/125/100 g/day in wk −3..−1/+1..+4/+5..+8), multiparious cows, week +6, two-trial comparison with Control Trial #2 (Table 26)): 12.08 weight %
- Total Solids Content of Produced Milk (Pre/Post Trial #1 (150/125/100 g/day in wk −3..−1/+1..+4/+5..+8), multiparious cows, week +7): 11.71 weight %
- Total Solids Content of Produced Milk (Pre/Post Trial #1 (150/125/100 g/day in wk −3..−1/+1..+4/+5..+8), multiparious cows, week +7, two-trial comparison with Control Trial #2 (Table 26)): 11.71 weight %
- Total Solids Content of Produced Milk (Pre/Post Trial #1 (150/125/100 g/day in wk −3..−1/+1..+4/+5..+8), multiparious cows, week +8): 12.06^b weight %
- Total Solids Content of Produced Milk (Pre/Post Trial #1 (150/125/100 g/day in wk −3..−1/+1..+4/+5..+8), multiparious cows, week +8, two-trial comparison with Control Trial #2 (Table 26)): 12.06 weight %
- Total Solids Content of Produced Milk (Pre/Post Trial #1 (150/125/100 g/day in wk −3..−1/+1..+4/+5..+8), multiparious cows, weeks +1 through +4): 13.49^ab weight %
- Total Solids Content of Produced Milk (Pre/Post Trial #1 (150/125/100 g/day in wk −3..−1/+1..+4/+5..+8), multiparious cows, weeks +1 through +4, two-trial comparison with Control Trial #2 (Table 26)): 13.49 weight %
- Total Solids Content of Produced Milk (Pre/Post Trial #1 (150/125/100 g/day in wk −3..−1/+1..+4/+5..+8), multiparious cows, weeks +1 through +8): 12.76^b weight %
- Total Solids Content of Produced Milk (Pre/Post Trial #1 (150/125/100 g/day in wk −3..−1/+1..+4/+5..+8), multiparious cows, weeks +1 through +8, two-trial comparison with Control Trial #2 (Table 26)): 12.76 weight %
- Total Solids Content of Produced Milk (Pre/Post Trial #1 (150/125/100 g/day in wk −3..−1/+1..+4/+5..+8), multiparious cows, weeks +5 through +8): 12.02^b weight %
- Total Solids Content of Produced Milk (Pre/Post Trial #1 (150/125/100 g/day in wk −3..−1/+1..+4/+5..+8), multiparious cows, weeks +5 through +8, two-trial comparison with Control Trial #2 (Table 26)): 12.02 weight %
- increase in total solids concentration in milk (Pre/Post Trial #1 (150/125/100 g/day) versus Control Trial #2, multiparious cows, weeks +1 through +4 (Table 26)): more than 3.7%
- greater total solids concentration in milk (Pre/Post Trial #1 (150/125/100 g/day) versus Control Trial #2, multiparious cows, weeks +1 through +8): 4.6%
- increase in total solids concentration in milk (Pre/Post Trial #1 (150/125/100 g/day) versus Control Trial #2, multiparious cows, weeks +1 through +8 (Table 26)): ~4.6%
- greater total solids concentration in milk (Pre/Post Trial #1 (150/125/100 g/day) versus Control Trial #2, multiparious cows, weeks +5 through +8): 5.2%
- increase in total solids concentration in milk (Pre/Post Trial #1 (150/125/100 g/day) versus Control Trial #2, multiparious cows, weeks +5 through +8 (Table 26)): more than 5.2%
- greater total solids concentration in milk (Pre/Post Trial #1 (150/125/100 g/day) versus Pre-Partum Trial #2 (75/0/100 g/day), multiparious cows, weeks +1 through +8): 4.3%
- greater total solids concentration in milk (Pre/Post Trial #1 (150/125/100 g/day) versus Pre-Partum Trial #2 (75/0/100 g/day), multiparious cows, weeks +5 through +8): 4.4%
- Total Solids Content of Produced Milk (Pre/Post Trial #2 (75/75/100 g/day in wk −3..−1/+1..+4/+5..+8), multiparious cows, week +1): 15.6^b weight %
- Total Solids Content of Produced Milk (Pre/Post Trial #2 (75/75/100 g/day in wk −3..−1/+1..+4/+5..+8), multiparious cows, week +2): 13.61 weight %
- Total Solids Content of Produced Milk (Pre/Post Trial #2 (75/75/100 g/day in wk −3..−1/+1..+4/+5..+8), multiparious cows, week +3): 12.92 weight %
- Total Solids Content of Produced Milk (Pre/Post Trial #2 (75/75/100 g/day in wk −3..−1/+1..+4/+5..+8), multiparious cows, week +4): 12.43^bc weight %
- Total Solids Content of Produced Milk (Pre/Post Trial #2 (75/75/100 g/day in wk −3..−1/+1..+4/+5..+8), multiparious cows, week +5): 12.38^b weight %
- Total Solids Content of Produced Milk (Pre/Post Trial #2 (75/75/100 g/day in wk −3..−1/+1..+4/+5..+8), multiparious cows, week +6): 11.89^ab weight %
- Total Solids Content of Produced Milk (Pre/Post Trial #2 (75/75/100 g/day in wk −3..−1/+1..+4/+5..+8), multiparious cows, week +7): 11.64 weight %
- Total Solids Content of Produced Milk (Pre/Post Trial #2 (75/75/100 g/day in wk −3..−1/+1..+4/+5..+8), multiparious cows, week +8): 11.57^ab weight %
- Total Solids Content of Produced Milk (Pre/Post Trial #2 (75/75/100 g/day in wk −3..−1/+1..+4/+5..+8), multiparious cows, weeks +1 through +4): 13.63^b weight %
- Total Solids Content of Produced Milk (Pre/Post Trial #2 (75/75/100 g/day in wk −3..−1/+1..+4/+5..+8), multiparious cows, weeks +1 through +8): 12.73^b weight %
- Total Solids Content of Produced Milk (Pre/Post Trial #2 (75/75/100 g/day in wk −3..−1/+1..+4/+5..+8), multiparious cows, weeks +5 through +8): 11.87^ab weight %
- greater total solids concentration in milk (Pre/Post Trial #2 (75/75/100 g/day) versus Control Trial #2, multiparious cows, weeks +1 through +4): 4.8%
- greater total solids concentration in milk (Pre/Post Trial #2 (75/75/100 g/day) versus Control Trial #2, multiparious cows, weeks +1 through +8): 4.3%
- greater total solids concentration in milk (Pre/Post Trial #2 (75/75/100 g/day) versus Pre-Partum Trial #2 (75/0/100 g/day), multiparious cows, weeks +1 through +4): 5.3%
- greater total solids concentration in milk (Pre/Post Trial #2 (75/75/100 g/day) versus Pre-Partum Trial #2 (75/0/100 g/day), multiparious cows, weeks +1 through +8): 4.1%
- increase in total solids concentration in milk (average of means of Pre-Partum Trial #2, Pre/Post Trial #1 and Pre/Post Trial #2 versus Control Trial #2, multiparious cows, weeks +1 through +4): 2.7%
- increase in total solids concentration in milk (average of means of Pre-Partum Trial #2, Pre/Post Trial #1 and Pre/Post Trial #2 versus Control Trial #2, multiparious cows, weeks +1 through +8): 1.1%
- increase in total solids concentration in milk (average of means of Pre-Partum Trial #2, Pre/Post Trial #1 and Pre/Post Trial #2 versus Control Trial #2, multiparious cows, weeks +5 through +8): 3.3%
